Data reported in patent US5032404A, “Lipsome-incorporation of polyenes” (priority 1989, dated 1991).
Values after ≈ are worked out from the molar mass of the structure shown. Like-named read-outs stand apart in the source and are kept apart here. Blank lines part the entries; values can stand above or below the compound they belong to.

How the values were obtained:
C. albicans [1] = assay: Antifungal activity (MIC) of free versus liposomal polyenes; format: cell-based
Description: The antifungal activity of free-verses liposomal-small polyenes was determined in vivo. These small polyenes included filipin, lagosin and natamycin.
The in vivo toxicity of liposomal small polyenes was evaluated in groups of 8 Hale-Stone mice (6-8 weeks old, body weight =20-25g; University of Texas Science Park, Bastrop, Tex.). Liposomal polyenes were prepared following the protocol set forth in Example 2. Each liposomal-small polyene formulated and evaluated in this study, listed in table 6, was administered to a group of normal and a group of infected mice. These infected mice were prepared by injection with 0.2 ml. of C. albicans according to the protocol set forth in Example 6.
The data on MIC of various liposomal-mepartricin preparations in normal and infected mice is presented for each of the small polyenes (filipin, lagasin natamysin and nystatin) and large polyenes in Table 6.

HTLV-III/LAV = conditions: monocyte-related cell line H9; Schaffner et al. (1986); cited from earlier work
[2] = tested on: Candida albicans (strain 336); assay: In vitro fungal inhibition (MIC), twofold serial dilution; format: cell-based
Description: The antifungal activity of free- verses liposomalhamycin against Candida albicans (strain 336) was determined in vitro. All strains of yeast were grown overnight at 37° C. on Sabouraud dextrose agar (SDA) plates. All molds were grown at 30° C. on SDA for 3 to 10 days prior to collection of spores. The inoculum was then processed for susceptibility testing as described earlier (Hopfer et al. (1984), Antimicrob. Agents Chemotherap., 25:387-389). A twofold serial dilutron method (Shadomy et al., In E. H. Lennette, et al., (eds.) Manual of Clinical Microbiology, 3rd ed. American Society for Microbiology, Washington, D.C. , pp. 647-653 (1980)) adapted to microtiter plates was used to determine the minimal inhibitory concentration (MIC) of the drugs.
The antifungal activity of free- versus liposomal-lucensomycin against Candida albicans (Strain 336) was determined in vitro. […] The MIC of free-lucensomycin was compared with that of liposomal-lucensomycin.

[3] = principal sterol of fungal versus human cell membranes; cited from earlier work
human RBCs = assay: In vitro toxicity: lysis of human red blood cells (hemoglobin release at 540 nm); conditions: 45 min
Description: Lysis of human red blood cells (RBCs) was quantitated by measuring the release of hemoglobin in the supernatants at 540 nm, as described previously (Mehta et al., (1984) Biochem. Biophys, Acta., 770:230-234). […] Release of hemoglobin by hypotonic lysis of the same number of human RBCs by water was taken as 100% positive control, while cells treated with PBS were taken as negative controls.
Lysis of human red blood cells (RBCs) was quantitated by measuring the release of hemoglobin in the supernatants at 540 nm, as described previously (Mehta et al., Biochem. Biophys, Acta., Vol. 770, pp. 230-234 (1984)). […] Release of hemoglobin by hypotonic lysis of the same number of human RBCs by water was taken as 100% positive control, while cells treated with PBS were taken as negative controls.
Lysis of human red blood cells (RBCs) was quantitated by measuring the release of hemoglobin in the supernatants at 540 nm, as described previously (Mehta et al., (1984) Biochem. Biophys. Acta., 770:230-234). […] Release of hemoglobin by hypotonic lysis of the same number of human RBCs by water was taken as 100% positive control, while cells treated with PBS were taken as negative controls.
Lysis of human red blood cells (RBCs) was quantitated by measuring the release of hemoglobin in the supernatants at 540 nm, as described previously (Mehta, et al. (1984) Biochem. Biophys. Acta, 770:230-234). […]

C. albicans [4] = assay: Single dose therapy of disseminated Candida albicans infection in mice; format: in vivo; conditions: free-hamycin from 5 microgram/mouse, versus control untreated group
Description: Hale-Stoner mice, six to eight weeks old (body weight, 20-25 g) were purchased from The University of Texas Science Park (Bastrop, TX). The mice (eight per group) were injected with 0.2 ml of C. albicans cell suspension containing 7×10^5 colony-forming units (cfu) via the tail vein. This concentration of cells was consistent in producing a disseminated infection after 48 hr, affecting primarily the liver, spleen, lungs and kidneys.
Mice were infected with C. albicans as described in Example 7. […] The survival of the animals in each group was recorded.

Compound: C[C@@H]1[C@H](O)[C@@H](C)/C=C/C=C/C=C/C=C/C=C/C=C/C=C/[C@H](O[C@@H]2O[C@H](C)[C@@H](O)[C@H](N)[C@@H]2O)C[C@@H]2O[C@](O)(C[C@@H](O)C[C@@H](O)[C@H](O)CC[C@@H](O)C[C@@H](O)CC(=O)O[C@H]1C)C[C@H](O)[C@H]2C(=O)O [Amphotericin B]
MIC, free (C. albicans [1]): 0.4 µg/mL (≈ 0.433 µM)
Replication of HTLV-III/LAV (in words) (HTLV-III/LAV): inhibited

MIC, free (C. albicans [1]): 5.0 µg/mL (≈ 15 µM)
Compound: COc1cc2c(c3oc(-c4ccccc4)cc(=O)c13)C=CC(C)(C)O2 [Candidin, candidin]

Compound: CCCCC[C@@H](O)[C@H]1C(=O)O[C@H](C)[C@@H](O)/C=C/C=C/C=C/C=C/C=C(\C)[C@@H](O)C[C@H](O)C[C@H](O)C[C@H](O)C[C@H](O)C[C@H](O)C[C@@H]1O [Filipin, filipin]
MIC, free (C. albicans [1]): 8.0 to 16.0 µg/mL

Compound: CCCCC[C@@H](O)[C@H]1C(=O)O[C@H](C)[C@@H](O)/C=C/C=C/C=C/C=C/C=C(\C)[C@@H](O)[C@H](O)[C@H](O)C[C@H](O)C[C@H](O)C[C@H](O)C[C@H](O)C[C@@H]1O [Lagosin, lagosin]
MIC, free (C. albicans [1]): 4.0 µg/mL (≈ 5.96 µM)

Compound: CCCCC1C/C=C/C=C/C=C/C=C/C(O[C@@H]2O[C@H](C)[C@@H](O)[C@H](N)[C@@H]2O)CC2OC(O)(CC(O)CC3OC3/C=C/C(=O)O1)CC(O)C2C(=O)O (some centres unmarked) [Lucensomycin, lucensomycin]
Antifungal activity (in words) ([2]; in vitro, with or without cholesterol where stated): high antifungal activity
Maximum solubility (DMFA): 10 mg/mL
Solubility in DMFA at 1 mg/ml (DMFA, 1 mg/ml): Yes
Maximum solubility (DMSO): 20 mg/mL
Solubility in DMSO at 1 mg/ml (DMSO, 1 mg/ml): Yes
Maximum solubility (methanol): 0.5 mg/mL
Solubility in methanol at 1 mg/ml (methanol, 1 mg/ml): Partial
Solubility in water/saline at 1 mg/ml (water/saline, 1 mg/ml): nil
Avidity for ergosterol compared to cholesterol (in words) [3]: greater avidity for ergosterol
Lysis of human RBCs (human RBCs; 10 mg/ml, 37° C.): 70%
Lysis of human RBCs (human RBCs; 30 mg/ml, liposomes without cholesterol): approximately 100%

MIC, free (C. albicans [1]): 4.0 µg/mL (≈ 6.01 µM)
Compound: C[C@@H]1C/C=C/C=C/C=C/C=C/[C@H](O[C@@H]2O[C@H](C)[C@@H](O)[C@H](N)[C@@H]2O)C[C@@H]2O[C@](O)(C[C@@H](O)C[C@H]3O[C@@H]3/C=C/C(=O)O1)C[C@H](O)[C@H]2C(=O)O [Natamycin, natamycin]

Compound: C[C@@H]1[C@H](O)[C@@H](C)/C=C/C=C/CC/C=C/C=C/C=C/C=C/C(O[C@H]2O[C@H](C)[C@@H](O)[C@H](N)[C@@H]2O)CC2O[C@](O)(CC(O)C(O)CCC(O)CC(O)CC(O)CC(=O)O[C@H]1C)CC(O)C2C(=O)O (some centres unmarked) [Nystatin]
MIC, free (C. albicans [1]): 1.0 µg/mL (≈ 1.08 µM)

Compound: COC(=O)[C@H]1[C@@H]2C[C@@H](O[C@@H]3O[C@H](C)[C@@H](O)[C@H](N)[C@@H]3O)/C=C/C=C/C=C/C=C/C=C/C=C/C=C/[C@H](C)[C@@H](O)[C@@H](C)[C@H](C)OC(=O)C[C@H](O)C[C@H](O)CC[C@@H](O)[C@H](O)C[C@H](O)C[C@](O)(C[C@@H]1O)O2 [amphotericin B methyl ester ascorbate]
Replication of HTLV-III/LAV (in words) (HTLV-III/LAV): inhibited

Compound: hamycin
MIC ([2]; Candida albicans strain 336, in vitro): 0.25 microgram/ml
Survival of infected mice (in words) (C. albicans [4]): None of the doses tested improved the survival of infected mice
Avidity for ergosterol compared to cholesterol (in words) [3]: greater avidity for ergosterol

Compound: mepartricin
MIC, free (C. albicans [1]): 2.0 to 4.0 µg/mL
